In one experiment the target is T1, HGFR (Homo sapiens, UniProt P08581).
T1 construct: endogenous in cells; host or cells: MKN-45 human gastric cancer cells
Kind of experiment: Inhibitory activity against the HGFR autophosphorylation using ELISA (MKN-45 cells). The experiment is classed as cell-based. Conditions: 1 hr with test substance. In outline:
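MKN-45 gastric cancer cells, plated overnight in 1% FBS RPMI1640, treated with compound 1 h at 37° C and lysed. Lysate captured on anti-phosphotyrosine (PY20) plates, probed with anti-HGFR then HRP anti-rabbit IgG; TMB absorbance at 450 nm. Activity expressed as % of untreated extract (100%) versus lysis buffer blank (0%).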
On the technique in general: An ELISA detects its analyte on a solid surface through an enzyme-linked reagent.

In experiment [1] the test system is Human umbilical vein endothelial cells (HUVECs). Kind of experiment: Inhibitory activity against the growth of vascular endothelial cells stimulated with hepatocyte growth factor. Conditions: HUVEC, HGF stimulated, third day, Cell Counting Kit-8, read-out: IC50 (cell proliferation activity). It counts as cell-based. How it is done: Human umbilical vein endothelial cells (HUVECs) were isolated according to the reported method (Shin Seikagaku Jikken Koza, “Cell culturing techniques”, p 197-202), and then cultured in a 5% CO2 incubator (37° C.) using EGM-2 medium (purchased from Clonetics) until the cells reached confluency.
HUVECs were suspended in a serum-free medium for endothelial cell culture (SFM, purchased from GIBCO RBL) containing 2% FBS. The cell suspension (2×10^4 cells/ml) was put in a cell culturing 96-well plate (purchased from NUNC, Production No. 167008) at 0.1 ml/well, and then cultured in a 5% CO2 incubator (37° C.) overnight. After the culture, each well was supplied with 50 μl of the test substance diluted with a 2% FBS-containing serum-free medium for endothelial cell culture and 50 μl of HGF (purchased from R&D) diluted at a concentration of 120 ng/ml with a 2% FBS-containing serum-free medium for endothelial cell culture, followed by culturing in a 5% CO2 incubator (37° C.). On the third day after the addition of the test substance, each well was supplied with 10 μl of Cell Counting Kit-8 (purchased from DOJINDO, Production No. 343-07623), and then the plate was incubated in a 5% CO2 incubator (37° C.) for about 2 hours. After the incubation, using a Plate Reader MTP-500 (Corona Electric), the absorbance of each well was determined at a measurement wavelength of 450 nm and a reference wavelength of 660 nm. While defining the absorbance of a well supplied with HGF and no test substance as 100% cell proliferation activity and the absorbance of the well supplied with no test substance and no HGF as 0% cell proliferation activity, the cell proliferation activity ratio (%) was calculated for each cell.

Experiment [2] has as its system Human gastric cancer cells (MKN-45). Kind of experiment: Inhibitory activity against the tumor growth of human gastric cancer cells (MKN-45) transplanted in nude mice. It counts as in vivo, BALB/c (nu/nu) mice. Conditions: orally twice every day, tumor volume at fifth day, relative to control group. How it is done: Human gastric cancer cells (MNK-45) were suspended in HBSS (purchased from GIBCO BRL). The cell suspension (5×10^7 cells/ml) was transplanted under the right flank skin of seven-week-old female BALB/c (nu/nu) mice at a volume of 0.1 ml. When tumor volume of the site transplanted with MNK-45 cells grew to 100-200 mm^3, mice were grouped so that the groups might be equalized in average tumor volume. The test substance was suspended in 0.5% methylcellulose, a mixed solution of hydrochloric acid and glucose (0.1N hydrochloric acid:5% glucose=1:9) or a mixed solution of dimethyl sulfoxide-Tween-glucose (dimethyl sulfoxide:Tween 80:5% glucose (containing equimolar hydrochloric acid to the test substance)=7:13:80), were administered orally to the mice twice every day. The tumor volumes were determined at the fifth day after the initiation of the administration of the test substances. The major axis and the minor axis of tumor were measured by a caliper to calculate ½×(major axis×minor axis×minor axis) for the tumor volume. The experiment was conducted using 10 mice in the control group (solvent-administered group) and 5 mice in test substance-administered group. The ratio in tumor volume of the group for administrating the test substance relative to that of the control group was defined as a tumor proliferation rate (%).

T1 sequence (P08581 25-1390): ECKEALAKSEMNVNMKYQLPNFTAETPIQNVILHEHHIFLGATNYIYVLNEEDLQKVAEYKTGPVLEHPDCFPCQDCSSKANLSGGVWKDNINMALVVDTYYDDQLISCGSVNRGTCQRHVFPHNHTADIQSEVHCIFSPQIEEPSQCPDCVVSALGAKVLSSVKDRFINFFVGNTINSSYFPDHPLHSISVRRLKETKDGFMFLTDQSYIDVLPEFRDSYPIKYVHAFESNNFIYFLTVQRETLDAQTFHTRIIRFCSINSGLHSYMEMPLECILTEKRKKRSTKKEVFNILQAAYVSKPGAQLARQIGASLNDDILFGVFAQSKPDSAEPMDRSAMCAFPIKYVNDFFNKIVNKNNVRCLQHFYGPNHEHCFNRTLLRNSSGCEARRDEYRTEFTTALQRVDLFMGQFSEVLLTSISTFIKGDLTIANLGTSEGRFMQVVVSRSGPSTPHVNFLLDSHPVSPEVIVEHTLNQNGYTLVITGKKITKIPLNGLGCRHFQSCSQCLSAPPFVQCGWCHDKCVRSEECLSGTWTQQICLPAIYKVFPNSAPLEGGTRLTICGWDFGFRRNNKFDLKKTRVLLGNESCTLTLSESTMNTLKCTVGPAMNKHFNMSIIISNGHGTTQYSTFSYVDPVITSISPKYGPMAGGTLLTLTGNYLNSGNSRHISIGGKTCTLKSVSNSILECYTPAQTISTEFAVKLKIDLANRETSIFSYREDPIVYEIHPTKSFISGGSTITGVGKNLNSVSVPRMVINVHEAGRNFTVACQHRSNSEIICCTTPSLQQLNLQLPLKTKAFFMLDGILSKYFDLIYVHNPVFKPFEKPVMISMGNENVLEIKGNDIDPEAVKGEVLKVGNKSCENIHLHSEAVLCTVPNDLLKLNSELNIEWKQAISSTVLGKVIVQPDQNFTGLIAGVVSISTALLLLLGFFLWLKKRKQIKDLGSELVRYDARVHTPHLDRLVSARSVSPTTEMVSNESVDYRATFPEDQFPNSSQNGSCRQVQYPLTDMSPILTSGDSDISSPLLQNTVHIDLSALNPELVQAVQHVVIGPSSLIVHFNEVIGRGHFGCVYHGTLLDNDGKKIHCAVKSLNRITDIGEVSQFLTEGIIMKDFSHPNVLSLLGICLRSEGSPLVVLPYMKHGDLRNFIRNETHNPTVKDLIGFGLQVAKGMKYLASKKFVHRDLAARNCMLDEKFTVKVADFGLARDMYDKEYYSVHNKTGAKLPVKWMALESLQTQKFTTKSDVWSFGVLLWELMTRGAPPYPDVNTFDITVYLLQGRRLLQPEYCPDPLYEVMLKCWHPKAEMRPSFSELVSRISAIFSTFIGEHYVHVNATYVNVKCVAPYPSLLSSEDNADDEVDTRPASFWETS

For `CN1CCC(N(C)C(=O)Nc2cc(Oc3ccc(NC(=O)C4(C(=O)Nc5ccc(F)cc5)CC4)cc3F)ccn2)CC1` [Example 1, N-(3-Fluoro-4-{[2-({[methyl(1-methylpiperidin-4-yl)amino]carbonyl}amino)pyridin-4-yl]oxy}phenyl)-N′-(4-fluorophenyl)cyclopropane-1.1-dicarboxamide], the IC50 at HGFR is 18 nM; in experiment [1] it was 4.6 nM.

With `CN(C)CCN1CCN(C(=O)Nc2cc(Oc3ccc(NC(=O)C4(C(=O)Nc5ccc(F)cc5)CC4)c(F)c3)ccn2)CC1` [Example 2, N-[4-({2-[({4-[2-(Dimethylamino)ethyl]piperazin-1-yl}carbonyl)amino]pyridin-4-yl}oxy)-2-fluorophenyl]-N′-(4-fluorophenyl)cyclopropane-1,1-dicarboxamide], the IC50 against HGFR is 21 nM; in experiment [1], 18 nM. In addition, the “Tumor proliferation rate (%)” value in experiment [2] (Dose 30 mg/kg/time) amounted to 73.3%; in experiment [2] (Dose 100 mg/kg/time) it was 27.5%.

Turning to `CN1CCC(N(C)C(=O)Nc2cc(Oc3ccc(NC(=O)C4(C(=O)Nc5ccc(F)cc5)CC4)c(F)c3)ccn2)CC1` [Example 3, N-(2-Fluoro-4-{[2-({[methyl(1-methylpiperidin-4-yl)amino]carbonyl}amino)pyridin-4-yl]oxy}phenyl)-N′-(4-fluorophenyl)cyclopropane-1,1-dicarboxamide], the IC50 came to 19 nM against HGFR and 13 nM in experiment [1].

On to `CN(C)CCN1CCN(C(=O)Nc2cc(Oc3ccc(NC(=O)C4(C(=O)Nc5ccc(F)cc5)CC4)cc3F)ccn2)CC1` [Example 7, N-[4-({2-[({4-[2-(Dimethylamino)ethyl]piperazin-1-yl}carbonyl)amino]pyridin-4-yl}oxy)-3-fluorophenyl]-N′-(4-fluorophenyl)cyclopropane-1,1-dicarboxamide], for which the IC50 against HGFR is 35 nM; in experiment [1] it was 18 nM.

On to `CN(C)CC1CCN(C(=O)Nc2cc(Oc3ccc(NC(=O)C4(C(=O)Nc5ccc(F)cc5)CC4)c(F)c3)ccn2)CC1` [Example 8, N-[4-({2-[({4-[(Dimethylamino)methyl]piperidin-1-yl}carbonyl)amino]pyridin-4-yl}oxy)-2-fluorophenyl]-N′-(4-fluorophenyl)cyclopropane-1,1-dicarboxamide], for which the IC50 at HGFR was found to be 14 nM. Moreover, the “Tumor proliferation rate (%)” value in experiment [2] (Dose 30 mg/kg/time) is 53%; in experiment [2] (Dose 100 mg/kg/time), 23.3%.

`O=C(Nc1cc(Oc2ccc(NC(=O)C3(C(=O)Nc4ccc(F)cc4)CC3)c(F)c2)ccn1)N1CCC(N2CCC2)CC1` [Example 9, N-{4-[(2-{[(4-Azetidin-1-ylpiperidin-1-yl)carbonyl]amino}pyridin-4-yl)oxy]-2-fluorophenyl}-N′-(4-fluorophenyl)cyclopropane-1,1-dicarboxamide]: the values for the IC50 (against HGFR; in experiment [1]) were 11 nM and 25 nM, respectively.

Regarding `O=C(Nc1cc(Oc2ccc(NC(=O)C3(C(=O)Nc4ccc(F)cc4)CC3)cc2F)ccn1)N1CCC(N2CCC2)CC1` [Example 11, N-{4-[(2-{[(4-Azetidin-1-ylpiperidin-1-yl)carbonyl]amino}pyridin-4-yl)oxy]-3-fluorophenyl}-N′-(4-fluorophenyl)cyclopropane-1,1-dicarboxamide], the IC50 came to 13 nM against HGFR and 33 nM in experiment [1].

Regarding `CN1CCC(N(C)C(=O)Nc2cc(Oc3ccc(NC(=O)C4(C(=O)Nc5ccc(F)cc5)CC4)cc3)ccn2)CC1` [Example 12], the values for the IC50 (against HGFR; in experiment [1]) were 40 nM and 23 nM, respectively. Moreover, the “Tumor proliferation rate (%)” value in experiment [2] (Dose 30 mg/kg/time) is reported as 73.9%; in experiment [2] (Dose 100 mg/kg/time), 27.6%.

As to `CN(C)C1CN(C2CCN(C(=O)Nc3cc(Oc4ccc(NC(=O)C5(C(=O)Nc6ccc(F)cc6)CC5)c(F)c4)ccn3)CC2)C1` [Example 14, N-[4-({2-[({4-[3-(Dimethylamino)azetidin-1-yl]piperidin-1-yl}carbonyl)amino]pyridin-4-yl}oxy)-2-fluorophenyl]-N′-(4-fluorophenyl)cyclopropane-1,1-dicarboxamide], the IC50 on HGFR was found to be 19 nM; in experiment [1], 23 nM.

Take `CN1CC(N2CCN(C(=O)Nc3cc(Oc4ccc(NC(=O)C5(C(=O)Nc6ccc(F)cc6)CC5)c(F)c4)ccn3)CC2)C1` [Example 17]: the IC50 at HGFR was 15 nM; in experiment [1], 17 nM.

`CN(C)C1CN(C2CCN(C(=O)Nc3cc(Oc4ccc(NC(=O)C5(C(=O)Nc6ccc(F)cc6)CC5)cc4F)ccn3)CC2)C1` [Example 21, N-[4-({2-[({4-[3-(Dimethylamino)azetidin-1-yl]piperidin-1-yl}carbonyl)amino]pyridin-4-yl}oxy)-3-fluorophenyl]-N′-(4-fluorophenyl)cyclopropane-1,1-dicarboxamide]: the IC50 was found to be 11 nM at HGFR and 24 nM in experiment [1].

Consider `CN(C)CC1CN(C(=O)Nc2cc(Oc3ccc(NC(=O)C4(C(=O)Nc5ccc(F)cc5)CC4)c(F)c3F)ccn2)C1` [Example 107, N-[4-({2-[({3-[(Dimethylamino)methyl]azetidine-1-yl}carbonyl)amino]pyridin-4-yl}oxy)-2,3-difluorophenyl]-N′-(4-fluorophenyl)cyclopropane-1,1-dicarboxamide], for which, at HGFR, the IC50 worked out at 36 nM.

The values above are taken from US7855290B2, “Pyridine derivatives and pyrimidine derivatives (3)” (Eisai R&D Management Co., Ltd., priority 2005, dated 2010).
